Test results taken from patent US20230083973A1, “SUBSTITUTED CYCLOPROPYL-2,2'-BIP[…], ANALOGUES THEREOF, AND METHODS USING SAME” (priority 2019, published 2023).
Read-outs that look alike come from different tables or passages of the source.

Test system: HBsAg
Experiment: HBsAg assay: inhibition of HBsAg in HepG2.2.15 cells (chemiluminescence immunoassay of supernatant)
Type: cell-based, hepatitis B virus
Settings: HBsAg in supernatant at day 6 after exposure to compound, 0.5% DMSO
Procedure, shortened: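 HepG2.2.15 cells treated with serially diluted compounds (0.5% DMSO), medium and compound refreshed after 2–3 days, supernatant harvested at day 6. Secreted HBsAg measured by chemiluminescence immunoassay; EC50 from dose-response curves, with parallel CellTiter-Glo viability at 5,000 cells/well.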

[1] = read-out: sAg EC50, HepG2.2.15 cells
[2] = Hepatitis B virus, HepG2.2.15, 144 h, read-out: sAg EC50, HepG2.2.15 cells

Compound	EC50 [1] [nM]	EC50 [2] [nM]
CO[C@H]1CCN(c2cc(C3CC3c3cnc(-c4ncccn4)nc3)ccc2F)C1 (single isomer, unassigned) [Example 67]	180	
COc1cc(C2CC2c2cnc(-c3ncccn3)nc2)cc(OC)c1F (single isomer, unassigned) [Example 147, trans-5-(2-(4-Fluoro-3,5-dimethoxyphenyl)cyclopropyl)-2,2′-bipyrimidine]	10000	
COc1cc(C2CC2c2cnc(-c3ncccn3)nc2)cc(C)c1Cl (single isomer, unassigned) [Example 58, trans-5-(2-(4-Chloro-3-methoxy-5-methylphenyl)cyclopropyl)-2,2′-bipyrimidine]	290	
CO[C@@H]1CCN(c2cc(C3CC3c3cnc(-c4ncccn4)nc3)cc(F)c2F)C1 (single isomer, unassigned) [Example 96]	93	
Fc1cc([C@@H]2C[C@H]2c2cnc(-c3ncccn3)nc2)cc(F)c1OC1CC2(COC2)C1 (relative stereo) [Example 242, trans-5-(2-(4-((2-Oxaspiro[3.3]heptan-6-yl)oxy)-3,5-difluorophenyl)cyclopropyl)-2,2′-bipyrimidine]		390
Cc1nc2cc([C@@H]3C[C@H]3c3cnc(-c4ncccn4)nc3)ccc2s1 (relative stereo) [Example 278, trans-5-(2-([2,2′-Bipyrimidin]-5-yl)cyclopropyl)-2-methylbenzo[d]thiazole]		56
COc1cc(C2CC2c2cnc(-c3ncccn3)nc2OC)ccc1F (single isomer, unassigned) [Example 81, trans-5-(2-(4-Fluoro-3-methoxyphenyl)cyclopropyl)-4-methoxy-2,2′-bipyrimidine]	230	
Fc1cc(C2CC2c2cnc(-c3ncccn3)nc2)cc(O[C@H]2CCOC2)c1F (single isomer, unassigned) [Example 250]	76	
Fc1ccc(C2CC2c2cnc(-c3ncccn3)nc2)cc1F (single isomer, unassigned) [Example 15, trans-5-(2-(3,4-Difluorophenyl)cyclopropyl)-2,2′-bipyrimidine]	76	
CO[C@@H]1CCN(c2cc(C3CC3c3cnc(-c4ncccn4)nc3)ccc2F)C1 (single isomer, unassigned) [Example 94]		270
COc1ccc(C2CN(c3cc([C@@H]4C[C@H]4c4cnc(-c5ncccn5)nc4)cc(F)c3F)C2)cc1OC (relative stereo) [Example 216, trans-5-(2-(3-(3-(3,4-Dimethoxyphenyl)azetidin-1-yl)-4,5-difluorophenyl)cyclopropyl)-2,2′-bipyrimidine]		25
CCc1nc(-c2ncccn2)ncc1C1CC1c1ccc(F)c(OC)c1 (single isomer, unassigned) [Example 77, trans-4-Ethyl-5-(2-(4-fluoro-3-methoxyphenyl)cyclopropyl)-2,2′-bipyrimidine]	5000	
COCCCn1cc2c(F)cc([C@@H]3C[C@H]3c3cnc(-c4ncccn4)nc3)cc2n1 (relative stereo) [Example 267, trans-6-(2-([2,2′-Bipyrimidin]-5-yl)cyclopropyl)-4-fluoro-2-(3-methoxypropyl)-2H-indazole]		13
COc1cc([C@@H]2C[C@H]2c2cnc(-c3ncccn3)nc2)cc(C(F)(F)F)c1F (relative stereo) [Example 165, trans-5-(2-(4-Fluoro-3-methoxy-5-(trifluoromethyl)phenyl)cyclopropyl)-2,2′-bipyrimidine]		250
COc1ccc([C@H]2C[C@H]2c2cnc(-c3ncccn3)nc2)c(F)c1 (relative stereo) [Example 73, cis-5-(2-(2-Fluoro-4-methoxyphenyl)cyclopropyl)-2,2′-bipyrimidine]		9000
COc1cnn(-c2cc(C3CC3c3cnc(-c4ncccn4)nc3)cc(F)c2F)c1 (single isomer, unassigned) [Example 252, trans-5-(2-(3,4-Difluoro-5-(4-methoxy-1H-pyrazol-1-yl)phenyl)cyclopropyl)-2,2′-bipyrimidine]	14	
